According to patent publication US20230212202A1, “TREATMENT OF MGMT DEFICIENT CANCER WITH 2-FLUOROETHYL-SUBSTITUTED NITROSOUREAS AND OTHER COMPOUNDS” (YALE UNIVERSITY, priority 2021, published 2023):

Key:
[1] = test system: LN229 MGMT+/-, MMR+/- cells; assay: Clonogenic survival assay; type: cell-based, human
Protocol: Clonogenic Cell Survival Assay. Cells were trypsinized, washed, counted, and diluted in a medium containing various concentrations of drug. They were then immediately seeded in six-well plates in triplicate at three-fold dilutions, ranging from 9000 to 37 cells per well. Depending on colony size, these plates were kept in the incubator for 10 to 14 days. After incubation, colonies were washed in phosphate-buffered saline (PBS), stained with crystal violet, counted, and quantified.

[2] = test system: DLD1 MSH6-deficient cells; assay: Short-term viability assay with or without O6BG; type: cell-based, human; settings: with or without O6BG-induced MGMT depletion
Excerpt: (§1) Short-term Cell Viability Assay.

[3] = test system: HCT116 MLH1-/- cells or HCT116 +Chr3 cells; assay: Short-term viability assay with or without O6BG; type: cell-based, human
Excerpt: as §1

[4] = test system: LN229 MGMT-/MMR+ cells; assay: IR alkaline comet assay; type: cell-based, human
[5] = test system: LN229 MGMT-/MMR- cells; assay: IR alkaline comet assay; type: cell-based, human; settings: 200 µM, 2-24 h
[6] = test system: LN229 MGMT-/MMR+ cells; assay: Genomic DNA denaturing gel electrophoresis; type: cell-based, human
Protocol: Genomic DNA Denaturing Gel Electrophoresis. Assay was adapted from N. Bossuet-Greif et al., The Colibactin Genotoxin Generates DNA Interstrand Cross-Links in Infected Cells. mBio 9, (2018). Cells were trypsinized, washed with 1X PBS, and stored at -80° C. prior to processing. Genomic DNA was extracted with the DNeasy Blood & Tissue Kit (Qiagen) per kit protocol. A 0.7% agarose gel was prepared in 100 mM NaCl-2mM EDTA (pH 8) and soaked in 40 mM NaOH-1 mM EDTA running buffer for 2 h. Genomic DNA (400 ng/well) was then loaded in 1X BlueJuice loading buffer (Invitrogen) and subjected to electrophoresis at 2 V/cm for 30 min, followed by 3 V/cm for 2 h. The gel was neutralized in 150 mM NaCl-100 mM Tris (pH 7.4) for 30 min, twice, and then stained with 1X SYBR Gold in 150 mM NaCl-100 mM Tris (pH 7.4) for 90 min. Imaging was performed on a ChemiDoc XRS+ Molecular Imager (Bio-Rad).

[7] = test system: linearized pUC19 plasmid DNA; assay: In vitro DNA cross-linking assay; type: biochemical; settings: 100 µM, 6-36 hours
Protocol: Plasmid Linearization Assay. To set up the linearization reactions, 20 units of EcoRI-HF (New England Biolabs) was mixed with 20 µg 2686 bp pUC19 vector DNA in CutSmart buffer (New England Biolabs), pH 7.9, in a total volume of 1000 µL for 30 min at 37° C. The CutSmart buffer contains 50 mM potassium acetate, 20 mM Tris acetate, 10 mM magnesium acetate, and 100 µg/mL BSA. The reacted DNA was then purified using PCR cleanup kit and quantified using the NanoDrop One (Thermo Fisher). The DNA was then stored at -20° C. before use in in vitro DNA cross-linking assays or melting temperature analysis.
In Vitro DNA Cross-linking Assays. Linearized pUC19 DNA, prepared as described above, was used for in vitro DNA cross-linking assays. For each condition, 200 ng of linearized pUC19 DNA (15.4 µM base pairs) was incubated with the indicated concentration of drug in 20 µL. Drug stock concentrations were made in DMSO such that each reaction contained a fixed 5% DMSO concentration. Reactions were conducted in 100 mM Tris buffer (pH 7.4). Cisplatin (Sigma) and DMSO vehicle were used as positive and negative controls, respectively. Reactions were conducted between 3-96 h at 37° C. The DNA was stored at -80° C. until electrophoretic analysis. For gel electrophoresis, DNA concentration was preadjusted to 10 ng/µL. […]

[8] = test system: WT and XPA-deficient MEFs; assay: Short-term cell viability assay in NER isogenic MEFs; type: cell-based, mouse; settings: ±MGMT depletion with O6BG
Excerpt: as §1

[9] = test system: LN229 MGMT+/-, MMR+/- cells; assay: Cell cycle analysis; type: cell-based, human; settings: 20 µM
Protocol: Cell Cycle Analysis. Cell cycle analysis was performed using integrated Hoechst nucleic acid dye fluorescence intensity as previously described (51). Briefly, integrated Hoechst fluorescence intensity was log2 transformed and histograms from DMSO-treated cells were used to identify the centers of the 2 N and 4 N DNA peaks. These values were used to normalize the 2 N DNA peak to 1 and the 4 N DNA peak to 2. Cells were then classified by normalized log2 DNA content as G1 (0.75-1.25), S (1.25-1.75), or G2 (1.75-2.5) phase cells. The percentage of cells within each phase of the cell cycle was determined for each treatment condition. The three sets of Hoechst-stained cells corresponding to the three separate DNA foci stains were treated as three independent analyses.

[10] = test system: DLD1 BRCA2+/- and BRCA2-/- cells; assay: Short-term viability assay with or without O6BG; type: cell-based, human
[11] = test system: LN229 MGMT-/MMR+ and MGMT-/MSH6- flank tumors; assay: Flank tumor third study: large tumors; type: in vivo, mouse; settings: 25 mg/kg PO MWF × 3 weeks, ~350-400 mm^3 tumors
Protocol: The third study involved MGMT-/MMR+ and MGMT-/MSH6- (shMSH6) LN229 cells. Mice tumors were allowed to grow to a larger average starting volume of ~350 mm^3 before they were randomized and administered either KL-50 (4a; 25 mg/kg MWF × 3 weeks) or vehicle (10% cyclodextrin) by oral gavage. Caliper measurements were obtained during the dosing period and at least two weeks following treatment. Mice were euthanized if body weight loss exceeded 20% or if tumor volume increased to greater than 3000 mm^3.

SMILES: NC(=O)c1ncn2c(=O)n(CCF)nnc12 [KL-50]
- clonogenic survival, MGMT+ cells ([1]; LN229 MGMT+ cells): minimal toxicity to MGMT+ cells at doses up to at least 200 µM
- clonogenic survival, MGMT- cells ([1]; LN229 MGMT- cells, MMR+/-): robust antitumor activity in MGMT- cells, independent of MMR status
- activity in DLD1 cells [2]: toxic to these cells, but only after O^6BG-induced MGMT depletion
- activity in HCT116 cells [3]: selective tumor cell killing specifically in the setting of O^6BG-induced MGMT suppression
- IR-induced comet tail (ICL detection) ([4]; 200 µM, 24 h, 10 Gy): reduced the %DNA in the tail to levels similar to those seen for 0.1 µM MMC
- comet tailing in the absence of IR ([4]; TMZ, KL-50 200 µM, MMC 0.1 or 50 µM): induced tailing
- DNA damage in unirradiated samples, time course ([5]; 0 Gy): maximal damage at 2 h
- DNA mobility after IR, time course ([5]; 10 Gy): time-dependent decrease in DNA mobility
- crosslinked genomic DNA [6]: presence of crosslinked DNA
- ICLs in plasmid DNA [7]: possessed ICLs, with delayed rates of formation relative to 12b
- sensitivity of XPA deficient cells [8]: absence of additional sensitivity
- G2 arrest ([9]; MGMT+/MMR+ cells): moderate G2 arrest
- G2 arrest ([9]; MGMT-/MMR+ cells): increasing G2 arrest on progression from 24 to 48 h
- G2 arrest ([9]; MGMT-/MMR- cells): attenuated G2 arrest
- sensitivity of BRCA2-/- cells [10]: BRCA2 loss enhanced the toxicity
- therapeutic index (TI), ratio of IC50 values in MGMT+/BRCA2+ cells compared to MGMT-/BRCA2- cells ([10]; DLD1 isogenic model): ~ 600 fold
- growth of large tumors [11]: potently suppressed the growth
